One experiment relates to Mycobacterium bovis BCG. In kind it is cell-based.
The test system of experiment [1] is spores of Clostridium sporogenes ATCC 3584. The class given is cell-based. The following applies: pH 6.5, 10 hrs, Ambient.
The test system of experiment [2] is Trichophyton mentagrophytes ATCC 9533. Briefly: AOAC Fungicidal Activity of Disinfectants (955.17). In kind it is cell-based. The following applies: pH 6.5, 5 min, Ambient. Here is the method:
Activity against fungus, Trichophyton mentagrophytes ATCC 9533, was evaluated using the Fungicidal Activity of Disinfectants using Trichophyton mentagrophytes, Official Methods of Analysis of the Association of Official Analytical Chemists, paragraph 955.17. Composition KK was adjusted to pH 6.5 in synthetic hard water (400 ppm hardness) and tested for activity in the presence of a 5% organic soil load. Antimicrobial efficacy was determined by exposing stainless steel penicyclinders containing dried Trichophyton mentagrophytes to 10 mL of the test substance at the desired concentration, temperature and for the desired contact time. After which each penicylinder was removed aseptically and transferred to a neutralizing subculture medium. A peroxyacetic acid composition was also tested by this procedure.

Experiment [3] concerns Pseudomonas aeruginosa biofilm. As to the kind of experiment: Biofilm removal from stainless steel coupon.

Where two headings read alike, the source gives them in different places.

Consider `CC(=O)OO` [Peroxyacetic Acid], for which the “concentration of peroxyacetic acid needed to be as effective” value in the experiment on Mycobacterium bovis BCG is on record as at least 1250 ppm. The “# Negative Tubes/# Tubes Tested” value in experiment [1] (1000 ppm) is 59/60; in experiment [2] (1000 ppm) it was 10/10.
Consider `[Na+].[OH-]` [caustic, NaOH], for which the “survivors on enrichment of treated coupons” value in experiment [3] (caustic (3% of 50% NaOH) for 3 min at 160° F.) was “survivors on one of two coupons”. The “biofilm cleaning performance, ranking” value in experiment [3] (total 6 min at 160° F., synthetic hard water 500 ppm, acridine orange fluorescence imaging) was “lastly”.
`CCCCCCCC(=O)OO` [Peroxyoctanoic Acid]: the entries for the “# Negative Tubes/# Tubes Tested” value in experiment [1] (400 ppm) and in experiment [2] (400 ppm) were 60/60 and 10/10, respectively.

For the origin of these results see US8246758B2, “Neutral or alkaline medium chain peroxycarboxylic acid compositions and methods employing them” (Ecolab USA Inc., priority 2004, dated 2012).
